# pIC50: −log10 of the molar value.
# What was measured:
# AXL = molecular target: T1, AXL (Homo sapiens, UniProt P30530); experiment: TR-FRET kinase activity assay, AXL; assay type: biochemical; settings: ATP at Km, 60 minutes
# T1 sequence (P30530 26-894): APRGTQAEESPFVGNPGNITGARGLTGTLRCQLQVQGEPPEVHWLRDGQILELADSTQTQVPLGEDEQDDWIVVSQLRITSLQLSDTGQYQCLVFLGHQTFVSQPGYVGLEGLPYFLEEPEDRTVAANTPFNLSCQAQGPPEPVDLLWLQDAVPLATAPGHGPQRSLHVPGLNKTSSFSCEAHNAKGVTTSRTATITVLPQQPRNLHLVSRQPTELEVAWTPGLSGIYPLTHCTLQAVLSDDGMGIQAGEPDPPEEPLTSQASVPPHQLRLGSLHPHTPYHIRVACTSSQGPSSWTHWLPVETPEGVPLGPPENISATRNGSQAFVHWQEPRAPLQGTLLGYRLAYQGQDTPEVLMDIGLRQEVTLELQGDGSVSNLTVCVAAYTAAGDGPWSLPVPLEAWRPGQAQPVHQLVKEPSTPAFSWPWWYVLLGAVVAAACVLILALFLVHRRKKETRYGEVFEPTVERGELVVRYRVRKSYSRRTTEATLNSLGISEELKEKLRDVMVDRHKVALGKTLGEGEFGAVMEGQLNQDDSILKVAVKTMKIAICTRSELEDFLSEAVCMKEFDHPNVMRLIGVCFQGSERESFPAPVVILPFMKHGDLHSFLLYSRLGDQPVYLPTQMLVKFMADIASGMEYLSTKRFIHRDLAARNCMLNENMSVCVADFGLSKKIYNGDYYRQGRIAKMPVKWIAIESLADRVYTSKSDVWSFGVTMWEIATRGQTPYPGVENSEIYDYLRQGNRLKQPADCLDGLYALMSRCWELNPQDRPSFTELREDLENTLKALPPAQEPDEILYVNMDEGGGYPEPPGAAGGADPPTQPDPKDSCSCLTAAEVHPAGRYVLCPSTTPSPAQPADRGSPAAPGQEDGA
# Summary of the method: (§1)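 Each kinase phosphorylated a fluorescent-labelled tyrosine peptide in 50 mM HEPES pH 7.5, 10 mM MgCl2, 1 mM EGTA, 0.01% Brij 35, 1 mM DTT at RT, with ATP at Km for that enzyme. After 60 min, EDTA quench and Eu-anti-phosphotyrosine antibody (30 min, dark); IC50 from TR-FRET decrease.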
# MERTK = molecular target: T2, MERTK (Homo sapiens, UniProt Q12866); experiment: TR-FRET kinase activity assay, MERTK; assay type: biochemical; settings: for pIC50: TR-FRET activity assay, ATP at Km, 60 minutes, read-out: Mer IC50
# T2 sequence (Q12866 21-999): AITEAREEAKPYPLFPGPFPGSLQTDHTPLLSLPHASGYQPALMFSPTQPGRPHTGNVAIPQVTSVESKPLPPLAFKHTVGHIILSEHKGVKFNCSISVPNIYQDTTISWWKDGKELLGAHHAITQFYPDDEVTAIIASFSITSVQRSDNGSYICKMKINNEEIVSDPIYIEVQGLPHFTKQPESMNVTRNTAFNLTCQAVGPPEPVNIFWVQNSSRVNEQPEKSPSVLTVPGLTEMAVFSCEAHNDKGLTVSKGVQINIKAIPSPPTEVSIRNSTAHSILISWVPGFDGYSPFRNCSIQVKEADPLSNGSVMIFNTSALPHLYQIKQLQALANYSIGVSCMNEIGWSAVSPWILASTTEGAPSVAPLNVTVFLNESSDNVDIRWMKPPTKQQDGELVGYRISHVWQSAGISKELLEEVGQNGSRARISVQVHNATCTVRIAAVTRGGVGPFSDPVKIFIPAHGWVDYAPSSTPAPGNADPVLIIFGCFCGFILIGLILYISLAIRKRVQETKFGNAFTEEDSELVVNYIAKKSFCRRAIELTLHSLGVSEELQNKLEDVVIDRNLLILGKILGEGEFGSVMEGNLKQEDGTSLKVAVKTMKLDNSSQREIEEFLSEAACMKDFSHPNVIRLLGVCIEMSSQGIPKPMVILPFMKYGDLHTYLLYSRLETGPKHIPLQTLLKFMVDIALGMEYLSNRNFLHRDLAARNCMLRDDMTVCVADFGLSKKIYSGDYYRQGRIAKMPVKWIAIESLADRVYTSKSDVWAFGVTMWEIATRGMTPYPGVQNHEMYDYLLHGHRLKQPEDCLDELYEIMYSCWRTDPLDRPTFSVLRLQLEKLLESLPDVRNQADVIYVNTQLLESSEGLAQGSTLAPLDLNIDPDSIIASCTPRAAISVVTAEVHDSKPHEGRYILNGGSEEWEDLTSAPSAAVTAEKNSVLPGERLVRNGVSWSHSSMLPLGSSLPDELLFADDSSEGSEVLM
# Summary of the method: as §1
# [1] = ratio of Mer to FLT3: FLT3 IC50/Mer IC50
# [2] = ratio calculated as FLT3 IC50/Mer IC50
Structure (SMILES),pIC50 (AXL),pIC50 (MERTK),FLT3/Mer ratio (FLT3 IC50/Mer IC50) (MERTK; [1]),FLT3/Mer ratio (FLT3 IC50/Mer IC50) (MERTK; [2])
COC[C@H](C)Nc1ncc2c(-c3ccnc(O[C@@H]4CCCNC4)c3)cc([C@H]3CC[C@H](O)CC3)n2n1 [Compound 390],≥ 7.00,≥ 7.00,+++ (“+++” represents a ratio of >100),–
COC[C@H](C)Nc1ncc2c(-c3cnn(CC4COC4)c3)cc([C@H]3CC[C@H](O)CC3)n2n1 [Compound 420],≥ 7.00,≥ 7.00,–,+++ (“+++” represents a ratio of >100)
"COC[C@H](C)Nc1ncc2c(-c3ccc(CN4CCN(C)CC4)cc3)cc([C@H]3CC[C@H](O)CC3)n2n1 (single isomer, unassigned) [Compound 124]",≥ 7.00,≥ 7.00,++ (“++” represents a ratio of between 10 and 100),–
CC[C@H](C)Nc1ncc2c(-c3cncc(S(C)(=O)=O)c3)cc([C@H]3CC[C@H](O)CC3)n2n1 [Compound 119],6.00 to 7.00,≥ 7.00,+++ (“+++” represents a ratio of >100),–
COC[C@H](C)Nc1ncc2c(-c3cnn([C@H]4CCC(C(=O)OC(C)(C)C)C4)c3)cc([C@H]3CC[C@H](O)CC3)n2n1 (stereo partly drawn) [Compound 365],≥ 7.00,≥ 7.00,+++ (“+++” represents a ratio of >100),–
COC[C@H](C)Nc1ncc2c(-c3ccnc(O[C@H]4CCNC4)c3)cc([C@H]3CC[C@H](O)CC3)n2n1 [Compound 386],≥ 7.00,≥ 7.00,+++ (“+++” represents a ratio of >100),–
COC[C@H](C)Nc1ncc2c(-c3ccnc(C)c3)cc([C@H]3CC[C@](C)(O)CC3)n2n1 [Compound 391],≥ 7.00,≥ 7.00,+++ (“+++” represents a ratio of >100),–
COC[C@H](C)Nc1ncc2c(-c3cc([C@H]4CC[C@H](O)CC4)n4nc(N[C@@H](C)COC)ncc34)cc([C@H]3CC[C@H](O)CC3)n2n1 [Compound 349],5.00 to 6.00,≥ 7.00,+++ (“+++” represents a ratio of >100),–
COC[C@H](C)Nc1ncc2c(-c3ccnc(OC4COC4)c3)cc([C@H]3CC[C@H](O)CC3)n2n1 [Compound 358],≥ 7.00,≥ 7.00,+++ (“+++” represents a ratio of >100),–
CNc1cc(-c2cc([C@H]3CC[C@H](O)CC3)n3nc(N[C@@H](C)COC)ncc23)ccn1 [Compound 354],≥ 7.00,≥ 7.00,+++ (“+++” represents a ratio of >100),–
CNC(=O)c1cc(-c2cc([C@H]3CC[C@H](O)CC3)n3nc(N[C@@H](C)COC(F)F)ncc23)ccn1 [Compound 411],≥ 7.00,≥ 7.00,–,+++ (“+++” represents a ratio of >100)
COCC(C)Nc1ncc2c(C3CCCN(C(C)=O)C3)cc(C3CCC(O)CC3)n2n1 (stereo not drawn) [Compound 371],5.00 to 6.00,≥ 7.00,+++ (“+++” represents a ratio of >100),–
COC[C@H](C)Nc1ncc2c(-c3cnn(CC4CCCO4)c3)cc([C@H]3CC[C@H](O)CC3)n2n1 (stereo partly drawn) [Compound 380],≥ 7.00,≥ 7.00,+++ (“+++” represents a ratio of >100),–
COCC(C)Nc1ncc2c(-c3cnn(C(C)(C)C(=O)N4CCOC(C)(C)C4)c3)cc(C3CCC(O)CC3)n2n1 (stereo not drawn) [Compound 366],≥ 7.00,≥ 7.00,+++ (“+++” represents a ratio of >100),–
COC[C@H](C)Nc1ncc2c(-c3cnn(C(C)(C)C(=O)N4C[C@@H](C)O[C@H](C)C4)c3)cc([C@H]3CC[C@H](O)CC3)n2n1 [Compound 367],≥ 7.00,≥ 7.00,+++ (“+++” represents a ratio of >100),–
CNC(=O)c1cc(-c2cc([C@H]3CC[C@H](O)CC3)n3nc(N[C@@H](C)COC(F)F)ncc23)cc(C)n1 [Compound 385],6.00 to 7.00,≥ 7.00,+++ (“+++” represents a ratio of >100),–

# Source: patent US11040981B2, “Pyrrolotriazine compounds and methods of inhibiting TAM kinases” (Syros Pharmaceuticals, Inc., priority 2017, dated 2021)
